# Results: patent US3991057A, “C-Piperazino-pyridine sulfonamides” (A. Christiaens Societe Anonyme, priority 1970, dated 1976)
# Counter-ions that a name gives are not always drawn. Like-named read-outs stand apart in the source and are kept apart here.
# Assays:
# [1] = test system: carrageenan-induced paw oedema; experiment: Acute oedema induced by carrageenan (anti-inflammatory test, rat paw swelling by plethysmography); format: in vivo; details: for inhibition in vivo at 100 mg/kg: Rattus norvegicus, read-out: Acute oedema induced by carrageenan, % of inhibition
# Protocol: The anti-inflammatory properties are determined as follows:
# The compounds to be tested are given as freshly prepared solutions or suspensions by oral route one hour before injecting the paw with carrageenan, a known inflammatory agent.
# The inflammatory agent either in aqueous solution or suspension is then injected into the plantar tissue of the right hind paw of each rat, the left paw remaining untreated and serving as control. Each animal receives for example 0.05 ml of an aqueous solution containing 1 % of carrageenan and 0.9 % of sodium chloride.
# 4 hours after injection, the importance of swelling is determined by plethysmography and is expressed as a percent of the volume of the control paw.
# The anti-inflammatory effect expressed as a percent of inhibition is obtained by comparison between rats treated with the anti-inflammatory agent and a control group of rats.
# 100 mg/kg of anti-inflammatory agent are administered by oral route.
# [2] = test system: test animal (left carotid and femoral artery flow, ventricular and aortic pressure); experiment: Cardiovascular properties (flow rates of carotid and femoral artery, ventricular and aortic pressures) in the test animal; format: in vivo; design: ventricular and aortic pressures after moderate lowering: unit not given here; details: for ventricular and aortic pressures after sharp fall: from 130 mm of Hg
# Protocol: Some compounds of this invention also have interesting cardiovascular properties so that they may be used as cerebral, coronary and peripheral vasodilators and hypotension-inducing agents, whereby the hypotension activity may occur primarily or secondarily with respect to the peripheral vasodilatation.
# These cardiovascular properties have been found as follows:
# After administration of the compound at the hereafter-indicated doses, the following parameters are measured on the test animal: the electrocardiogram, the left ventricular pressure, the amplified telediastolic pressure, the derivative of the ventricular pressure with respect to time (dp/dt), the aortic pressure, the average and pulsatile blood flow of the left carotid and femoral artery.
# [3] = 100 mg/kg oral, one hour before carrageenan, 4 hours after injection
structure (smiles),measurement,setting,value
"CN1CCN(c2ccc(C#N)cn2)CC1 [Example 23, 2-(4'-methyl-1'-piperazinyl)-5-cyanopyridine]",inhibition in vivo at 100 mg/kg,[1]; [3],48.8%
"CCNS(=O)(=O)c1cccnc1N1CCN(C)CC1 [Example 4, 2-(4'-methyl-1'-piperazinyl)-pyridine-3-ethylsulfonamide]",inhibition in vivo at 100 mg/kg,[1]; [3],50%
"CCN(CC)S(=O)(=O)c1cccnc1N1CCN(C)CC1 [Example 5, 2-(4'-methyl-1'-piperazinyl)-pyridine-3-diethylsulfonamide dihydrochloride]",inhibition in vivo at 100 mg/kg,[1]; [3],44%
"CN1c2ccccc2Sc2ccc(CC(=O)O)cc21 [Methiazinic acid, reference compound]",inhibition in vivo at 100 mg/kg,[1]; [3],46%
"CC(C)NC(=O)c1ccc(N2CCN(C)CC2)nc1 [Example 27, 2-(4'-methyl-1'-piperazinyl)-5-isopropylcarboxamide]",inhibition in vivo at 100 mg/kg,[1]; [3],32%
"CN1CCN(c2ncccc2C#N)CC1 [Example 14, 2-(4'-methyl-1'-piperazinyl)-3-cyanopyridine hydrochloride]",inhibition in vivo at 100 mg/kg,[1]; [3],63.2%
"CN1CCN(CCNS(=O)(=O)c2cnccc2N2CCN(C)CC2)CC1 [Example 38, 4-(4'-methyl-1'-piperazinyl)-pyridine-3-(4""-methyl-1""-piperazinyl)-ethylsulfonamide]",activity on the carotid and femoral flow rates,[2]; 2 mg/kg,slight and breaf
same,duration of activity on / increase of the carotid and femoral flow rates,[2]; 2 mg/kg,5 min
same,duration of action on the carotid and femoral flow rates,[2]; 4 mg/kg and 8 mg/kg,10 min
same,increase of the average flow rates (carotid and femoral),[2]; 4 mg/kg and 8 mg/kg,100%
same,"Acute oedema induced by carrageenan, % of inhibition",[1]; [3],60.8%
"CC(C)NC(=O)c1cccnc1N1CCN(C)CC1 [Example 22, 2-(4'-methyl-1'-piperazinyl)-pyridine-3-isopropylcarboxamide]",inhibition in vivo at 100 mg/kg,[1]; [3],40%
"CC(C)NS(=O)(=O)c1cnccc1N1CCN(C)CC1 [Example 33, 4-(4'-methyl-1'-piperazinyl)-pyridine-3-isopropylsulfonamide]",duration of increase of the average carotid flow rate,[2]; 2 mg/kg,5 min
same,increase of the average carotid flow rate,[2]; 2 mg/kg,slight increase
same,time the carotid flow rate remains high compared to control values,[2]; 4 mg/kg,10 min
same,time to increase of the carotid flow rate,[2]; 4 mg/kg,within two minutes
same,time to fall of femoral flow rate to the starting values,"[2]; 4 mg/kg, after injection",≤ 2 min
same,increase of the carotid flow rate,"[2]; 4 mg/kg, maximum where stated",300%
same,increase of the femoral flow rate,"[2]; 4 mg/kg, maximum where stated",200%
"CCNC(=O)c1cccnc1N1CCN(C)CC1 [Example 21, 2-(4'-methyl-1'-piperazinyl)-pyridine-3-ethylcarboxamide]",inhibition in vivo at 100 mg/kg,[1]; [3],44.4%
"CN(C)C=NS(=O)(=O)c1cnccc1N1CCN(C)CC1 [Example 48, 4-(4'-methyl-1'-piperazinyl)-pyridine-3-dimethylaminomethinesulfonamide]",duration of activity on / increase of the carotid and femoral flow rates,[2]; 2 mg/kg,5 min
same,increase of the carotid and femoral flow rates,[2]; 2 mg/kg,100%
same,duration of increase of the carotid and femoral flow rates,[2]; 4 mg/kg,10 min
same,fall of the ventricular and aortic pressures,[2]; 4 mg/kg,temporary and moderate fall
same,increase of the carotid and femoral flow rates,"[2]; 4 mg/kg, compared with 2 mg/kg",stronger and longer
same,phenomena (flow rates and pressures) compared with 4 mg/kg,[2]; 8 mg/kg,Identical phenomena are observed
"CCCCC1C(=O)N(c2ccccc2)N(c2ccccc2)C1=O [Phenylbutazone, reference compound]",inhibition in vivo at 100 mg/kg,[1]; [3],41%
"O=C(O)c1ccccc1Nc1cccc(C(F)(F)F)c1 [Flufenamic acid, reference compound]",inhibition in vivo at 100 mg/kg,[1]; [3],34%
"O=C(O)c1cccnc1Nc1cccc(C(F)(F)F)c1 [Niflumic acid, reference compound]",inhibition in vivo at 100 mg/kg,[1]; [3],32%
"CCOCCNS(=O)(=O)c1cnccc1N1CCN(C)CC1 [Example 40, 4-(4'-methyl-1'-piperazinyl)-pyridine-3-ethoxyethylsulfonamide]",duration of activity on / increase of the carotid and femoral flow rates,[2]; 2 mg/kg,less than 5 min
same,variation of the cardiac and peripheral pressures,[2]; 2 mg/kg,without variation
same,increase of the femoral flow rate,"[2]; 2 mg/kg, maximum",50%
same,increase of the carotid flow rate,"[2]; 2 mg/kg, maximum where stated",300%
same,duration of hypotension / fall of pressure,[2]; 4 mg/kg,3 min
same,increase of the carotid flow rate,[2]; 4 mg/kg,moderate increase of the carotid flow rate remains after return of the pressure rates to normal conditions
same,return of blood pressure to the starting values,[2]; 4 mg/kg,quick return to the starting values
same,blood pressure after moderate fall,"[2]; 4 mg/kg, from 150 mm of Hg",90 mm of Hg
same,inhibition in vivo at 100 mg/kg,[1]; [3],60%
"CNS(=O)(=O)c1cnccc1N1CCN(C)CC1 [Example 29, 4-(4'-methyl-1'-piperazinyl)-pyridine-3-methylsulfonamide]",duration of increase of the femoral flow rate,[2]; 2 mg/kg,less than 5 min
same,increase of the femoral flow rate,"[2]; 2 mg/kg, maximum",80%
same,duration of increase of the carotid and femoral flow rates,[2]; 4 mg/kg,10 min
same,modification of the pressures,[2]; 4 mg/kg,slight reflex modification of the pressures
same,increase of the carotid flow rate,"[2]; 4 mg/kg, maximum where stated",120%
same,increase of the femoral flow rate,"[2]; 4 mg/kg, maximum where stated",80%
same,increase of the carotid flow rate,[2]; 10 mg/kg,300%
same,phenomena (flow rates and pressures) compared with 4 mg/kg,[2]; 10 mg/kg,identical phenomena occur which are however stronger and of longer duration
"CC(=O)Oc1ccccc1C(=O)O [Acetosalicylic acid, reference compound]",inhibition in vivo at 100 mg/kg,"[1]; po, 4 h",0%
"COCCNS(=O)(=O)c1cnccc1N1CCN(C)CC1 [Example 39, 4-(4'-methyl-1'-piperazinyl)-pyridine-3-methyoxyethylsulfonamide]",time to return of ventricular and aortic pressures to the starting values / reversal of lowering,[2]; 2 mg/kg,less than 3 min
same,ventricular and aortic pressures after sharp fall,[2]; 2 mg/kg,90 mm of Hg
same,increase of the carotid flow rate,"[2]; 2 mg/kg, maximum where stated",75%
same,duration of hypotension / fall of pressure,[2]; 4 mg/kg,2 min
same,increase of the peripheral flow rates,[2]; 4 mg/kg,50%
same,time to return of pressures to the starting values,[2]; 4 mg/kg,30 min
same,ventricular and aortic pressures after sharp fall,[2]; 4 mg/kg,40 mm of Hg
same,inhibition in vivo at 100 mg/kg,[1]; [3],55.2%
"CN1CCN(c2ccncc2S(N)(=O)=O)CC1 [Example 28, 4-(4'-methyl-1'-piperazinyl)-pyridine-3-sulfonamide]",duration of activity on / increase of the carotid and femoral flow rates,[2]; 2 mg/kg,more than 5 min
same,time to return of ventricular and aortic pressures to the starting values / reversal of lowering,[2]; 2 mg/kg,≤ 2 min
same,ventricular and aortic pressures after moderate lowering,"[2]; 2 mg/kg, from 160 mm of Hg",100
same,increase of the femoral flow rate,"[2]; 2 mg/kg, maximum",100%
same,increase of the carotid flow rate,"[2]; 2 mg/kg, maximum where stated",150%
same,phenomena (flow rates and pressures) compared with 2 mg/kg,[2]; 4 mg/kg,The same phenomena occur
same,time to return of pressures to the starting values,[2]; 4 mg/kg,40 min
same,ventricular and aortic pressures after lowering,"[2]; 4 mg/kg, from 160 mm of Hg",70 mm of Hg
same,phenomena (flow rates and pressures) compared with 4 mg/kg,[2]; 8 mg/kg,identical phenomena are observed
same,time to return of pressures to their starting value,[2]; 8 mg/kg,50 min
"CNC(=O)c1cccnc1N1CCN(C)CC1 [Example 19, 2-(4'-methyl-1'-piperazinyl)-pyridine-3-methylcarboxamide]",inhibition in vivo at 100 mg/kg,[1]; [3],51.2%
"CN1CCN(c2ccc(C(=O)N(C)C)cn2)CC1 [Example 25, 2-(4'-methyl-1'-piperazinyl)-5-dimethylcarboxamide]",inhibition in vivo at 100 mg/kg,[1]; [3],28.8%
"CCNS(=O)(=O)c1ccc(N2CCN(C)CC2)nc1 [Example 11, 2-(4'-methyl-1'-piperazinyl)-pyridine-5-ethylsulfonamide]",inhibition in vivo at 100 mg/kg,[1]; [3],42.4%
"CCN(CC)S(=O)(=O)c1cnccc1N1CCN(C)CC1 [Example 32, 4-(4'-methyl-1'-piperazinyl)-pyridine-3-diethylsulfonamide]",time to fall of cardiac and peripheral pressures,[2]; 2 mg/kg,≤ 45 s
same,cardiac and peripheral pressures on recovery,"[2]; 2 mg/kg, after 5 minutes",135 mm of Hg
same,cardiac and peripheral pressures after fall,"[2]; 2 mg/kg, from 150 mm of Hg",75 mm of Hg
same,increase of the carotid flow rate,"[2]; 2 mg/kg, maximum where stated",60%
same,duration of hypotension / fall of pressure,[2]; 4 mg/kg,more than 20 min
same,time to return of pressures to the starting values,[2]; 4 mg/kg,> 70 min
same,pressure on return to the starting values,"[2]; 4 mg/kg, after 70 minutes",130 mm of Hg
same,pressure in moderate hypotension,"[2]; 4 mg/kg, from 135 mm of Hg",75 mm of Hg
same,inhibition in vivo at 100 mg/kg,[1]; [3],44.8%
